In patent US6825230B2, “Spiro and dispiro 1,2,4-trixolane antimalarials” (Medicines for Malaria Venture MMV, priority 2002, dated 2004):
In brackets after ≈: the same amount, converted by molar mass. Counter-ions that a name gives are not always drawn. Like-named read-outs stand apart in the source and are kept apart here.

Tests used:
[1] = system: chloroquine-resistant K1 strain of P. falciparum; experiment: In vitro antimalarial semiautomated microdilution assay ([3H]-hypoxanthine incorporation), K1 strain; assay type: cell-based, Plasmodium falciparum; conditions: Plasmodium falciparum, K1, 72 h, read-out: IC50 (ng/ml) K1, chloroquine-resistant K1 strain, 72 h incubation
Summary of the method: (§1)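 IC50 comes from Logit regression of [3H]-hypoxanthine incorporation data. Intraerythrocytic P. falciparum taken from asynchronous stock cultures is exposed to OZ compounds in a semiautomated microdilution format.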

[2] = system: chloroquine-sensitive NF54 strain of P. falciparum; experiment: In vitro antimalarial semiautomated microdilution assay ([3H]-hypoxanthine incorporation), NF54 strain; assay type: cell-based, Plasmodium falciparum; conditions: Plasmodium falciparum, NF54, 72 h, read-out: IC50 (ng/ml) NF54, chloroquine-sensitive NF54 strain, 72 h incubation
Summary of the method: as §1

[3] = system: ANKA strain of P. berghei; experiment: Single dose STI in vivo screen in infected mice; parameters: species or system Plasmodium berghei; conditions: for Survival (days) 10 mg/kg po: single 10 mg/kg po in 3% ethanol and 7% Tween 80; for Survival (days) 10 mg/kg po / Survival (days) 10 mg/kg SSV po / Survival (days) 10 mg/kg sc: untreated 6-7 days; for Activity (%) 10 mg/kg po: single 10 mg/kg po in 3% ethanol and 7% Tween 80 on day 1 post-infection; for Activity (%) 10 mg/kg po / Activity (%) 10 mg/kg SSV po / Activity (%) 10 mg/kg sc: percent reduction in parasitemia on day 3; for Survival (days) 10 mg/kg SSV po: single 10 mg/kg po in SSV; for Activity (%) 10 mg/kg SSV po: single 10 mg/kg po in standard suspending vehicle (SSV) on day 1 post-infection; for Survival (days) 10 mg/kg sc: single 10 mg/kg sc in 3% ethanol and 7% Tween 80; for Activity (%) 10 mg/kg sc: single 10 mg/kg sc in 3% ethanol and 7% Tween 80 on day 1 post-infection
[4] = system: ANKA strain of Plasmodium berghei; experiment: Single dose ED50/ED90/ED99 determination in infected mice; assay type: in vivo; conditions: single dose po in SSV on day 1 post-infection, parasitemia day 3, nonlinear fitting
Experimental: In the single dose ED50/ED98/ED99 determinations, Moro SPF or NMRI mice (group of three) infected with the ANKA strain of Plasmodium berghei were treated on day one post-infection. […] The SSV consists of 0.5% w/v CMC, 0.5% v/v benzyl alcohol, 0.4% v/v Tween 80, and 0.9% w/v sodium chloride in water. Antimalarial activity was measured by percent reduction in parasitemia on day three post-infection. The ED50/ED90 values were calculated by nonlinear fitting.
The ED50, ED90, and ED99 values were calculated by non-linear fitting with statistical program and were expressed in mg/kg.

[5] = system: Schistosoma mansoni 21-day-old schistosomules; experiment: Effect on 21-day-old schistosomules in infected mice; assay type: in vivo; conditions: for % reduction of schistosomule growth at day 21 after per os application of 200 mg/kg, FWR (%): female worm reduction rate
Experimental: Mice were infected with 100 Schistosoma mansoni cercariae on day 21 post-treatment. Each group was treated per os with trioxolanes at a single dose of 200 mg/kg. […] All groups were killed 4 weeks after treatment and the liver and intestine were removed and separated. The liver and intestine were compressed and alive male and female worms could be seen and counted. The effect of the compounds was evaluated by mean total and female worm burden.

[6] = system: Schistosoma mansoni adult worms (49-day-old); experiment: Effect on adult schistosomes (49-day-old) in infected mice; assay type: in vivo; conditions: single 400 mg/kg per os; for % reduction of adult worms growth at day 49 after per os application of 400 mg/kg, TWR (%): 49-day-old adults, total worm reduction rate; for Adult worms day 49, per os 400 mg/kg, DEAD WORM (%): percentage of dead worm in the liver
Experimental: Mice were infected with 100 Schistosoma mansoni cercariae on day 49 post-treatment. Each group was treated per os with OZ compounds at single doses of 200, 400, and 600 mg/kg. Untreated mice served as the control. All groups were killed 4 weeks after treatment and the liver and intestine were removed and separated. The liver and intestine were compressed and alive male and female worms could be seen and counted.

[7] = single 200 mg/kg per os, 21-day-old schistosomules

| SMILES | IC50 [1] | IC50 [2] | Survival (days) 10 mg/kg po [3] | Activity (%) 10 mg/kg po [3] | Survival (days) 10 mg/kg SSV po [3] | Activity (%) 10 mg/kg SSV po [3] | Survival (days) 10 mg/kg sc [3] | Activity (%) 10 mg/kg sc [3] | ED50 ([4]; Plasmodium berghei, po) | ED90 [4] | ED99 [4] | % reduction of schistosomule growth at day 21 after per os application of 200 mg/kg, FWR (%) [5, 7] | % reduction of adult worms growth at day 49 after per os application of 400 mg/kg, TWR (%) [6] | Adult worms day 49, per os 400 mg/kg, DEAD WORM (%) [6] | other results |
| --- | --- | --- | --- | --- | --- | --- | --- | --- | --- | --- | --- | --- | --- | --- | --- |
| COCC(=O)N1CCC2(CC1)OOC1(O2)C2CC3CC(C2)CC1C3 (stereo not shown) [OZ113, Adamantane-2-spiro-3′-8′-methoxyacetyl-1′,2′,4′-trioxa-8′-azaspiro[4.5]decane] | 0.95 ng/mL (≈ 2.82 nM) | 0.2 ng/mL (≈ 0.593 nM) | 7.3 days | 92% | 8.0 days | 96% | 7.3 days | 89% | 3.6 mg/kg | 9.0 mg/kg | 19 mg/kg |  |  |  |  |
| CC(C)(O)C[C@H]1CC[C@]2(CC1)OOC1(O2)C2CC3CC(C2)CC1C3 (stereo partly shown) [OZ205] | 1.5 ng/mL (≈ 4.46 nM) | 2 ng/mL (≈ 5.94 nM) | 10.0 days | 99.96% | 8.7 days | 99.94% | 9.7 days | 99.96% | 1.6 mg/kg | 3.3 mg/kg | 6.0 mg/kg | 83% | 0% | 12% | % reduction of schistosomule growth at day 21 after per os application of 200 mg/kg, TWR (%) ([5]; single 200 mg/kg per os, 21-day-old schistosomules, total worm reduction rate): 84% |
| c1ncn(C[C@H]2CC[C@]3(CC2)OOC2(O3)C3CC4CC(C3)CC2C4)n1 (stereo partly drawn) [OZ235, cis-Adamantane-2-spiro-3′-8′-(1′H-1′,2′,4′-triazol-1′-ylmethyl)-1′,2′,4-trioxaspiro[4.5]decane mesylate] | 1 ng/mL | 2 ng/mL |  |  |  |  |  |  |  | 7.1 mg/kg | 11 mg/kg |  |  |  | Survival (days) 10 mg/kg po ([3]; 10 mg/kg): 8.7 days; Activity (%) 10 mg/kg po ([3]; 10 mg/kg): 99.92%; Survival (days) 10 mg/kg SSV po ([3]; 10 mg/kg): 9.0 days; Activity (%) 10 mg/kg SSV po ([3]; 10 mg/kg): 99.97%; Survival (days) 10 mg/kg sc ([3]; 10 mg/kg): 8.0 days; Activity (%) 10 mg/kg sc ([3]; 10 mg/kg): 97%; ED50 [4]: 4.0 mg/kg |
| c1ccc(C2CCC3(CC2)OOC2(O3)C3CC4CC(C3)CC2C4)cc1 (stereo not shown) [OZ27] |  |  |  |  |  |  |  |  |  | 5.7 mg/kg | 9.9 mg/kg | 58% | 20% | 10% | % reduction of schistosomule growth at day 21 after per os application of 200 mg/kg, TWR (%) ([5]; po, 200 mg/kg, 504 h): 63%; ED50 ([4]; Plasmodium berghei, read-out: ED50): 2.9 mg/kg |
| CN1CCN(C(=O)C[C@H]2CC[C@]3(CC2)OOC2(O3)C3CC4CC(C3)CC2C4)CC1 (stereo partly shown) [OZ227] | 0.2 ng/mL (≈ 0.494 nM) | 0.2 ng/mL (≈ 0.494 nM) | 8.3 days | 99.68% | 9.3 days | 99.90% | 10.7 days | 99.84% | 2.3 mg/kg | 4.0 mg/kg | 6.2 mg/kg |  |  |  |  |
